{"source": "ChEMBL document CHEMBL5512610", "about": "“Drug discovery and optimization based on the co-crystal structure of natural product with target” (Eur J Med Chem, 2024)", "key": {"HepG2": {"test_system": "HepG2", "experiment": "Cytotoxicity against human HepG2 cells assessed as reduction in cell growth", "type": "functional, cell-based"}, "[1]": {"molecular_target": "T1, Cyclin-dependent kinase 9 (Homo sapiens, UniProt P50750)", "T1 sequence (P50750 whole entry)": "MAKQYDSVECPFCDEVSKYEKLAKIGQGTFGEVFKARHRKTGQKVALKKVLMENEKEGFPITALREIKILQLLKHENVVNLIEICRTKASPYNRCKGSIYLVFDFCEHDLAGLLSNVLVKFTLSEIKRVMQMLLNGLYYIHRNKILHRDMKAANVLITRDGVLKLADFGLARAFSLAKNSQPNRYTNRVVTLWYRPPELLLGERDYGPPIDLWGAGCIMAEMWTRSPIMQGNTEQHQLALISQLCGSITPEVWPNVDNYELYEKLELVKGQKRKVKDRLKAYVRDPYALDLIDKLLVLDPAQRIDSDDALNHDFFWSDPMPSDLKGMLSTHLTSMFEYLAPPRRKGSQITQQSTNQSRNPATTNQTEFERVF", "experiment": "Inhibition of CDK9 (unknown origin)"}, "Plasmodium falciparum": {"test_system": "Plasmodium falciparum", "experiment": "Antiplasmodial activity against Plasmodium falciparum K1 assessed as reduction in parasite growth", "type": "functional, organism-based"}, "[2]": {"experiment": "Binding affinity to actin (unknown origin) assessed as dissociation constant", "design": "species or system Homo sapiens"}, "A549": {"test_system": "A549", "experiment": "Growth inhibition of human A549 cells incubated for 72 hrs by MTT assay", "type": "functional"}, "Hepatitis C virus": {"test_system": "Hepatitis C virus", "experiment": "Antiviral activity against Hepatitis C virus genotype 1b infected in human Huh-7 cells assessed as reduction in viral infection", "type": "functional, organism-based, Hepacivirus hominis"}, "[3]": {"experiment": "Oral bioavailability in mouse", "type": "ADME, organism-based", "conditions": "in vivo"}, "[4]": {"molecular_target": "T1, Cyclin-dependent kinase 9", "experiment": "Inhibition of human recombinant CDK9 (773 to 928 residues) expressed in insect cells", "design": "species or system Insect cell"}, "[5]": {"experiment": "Cytotoxicity against human ARPE-19 cells assessed as cell growth inhibition incubated for 72 hrs by MTT assay", "type": "toxicity, cell-based"}, "[6]": {"experiment": "Cytotoxicity against HUVEC cells assessed as inhibition of cell growth incubated for 72 hrs by MTT assay", "type": "toxicity, cell-based", "conditions": "human"}, "MRC5 [7]": {"test_system": "MRC5", "experiment": "Cytotoxicity against human MRC5 cells assessed as reduction in cell viability", "type": "functional, cell-based"}, "NCI-N87": {"test_system": "NCI-N87", "experiment": "Antitumor activity against human NCI-N87 cells assessed as reduction in cell growth", "type": "functional, cell-based"}, "MRC5 [8]": {"test_system": "MRC5", "experiment": "Antiproliferative activity against human MRC5 cells assessed inhibition of cell growth incubated for 48 hrs by MTT assay", "type": "functional, cell-based", "conditions": "MRC5, 48 h"}, "[9]": {"molecular_target": "Cyclin-dependent kinase 2 (Homo sapiens, UniProt P24941)", "experiment": "Inhibition of CDK2 (unknown origin)"}}, "note": "pEC50, pIC50, pKd: −log10 of the molar value."}
{"smiles": "CC[C@]1(NC(N)=O)[C@@H](N)[C@H](Nc2cccc(C(C)=O)c2)[C@](O)(COC(=O)c2c(C)cccc2O)[C@]1(C)O", "values": [{"measurement": "pIC50", "setting": "HepG2", "value": "< 5.02"}]}
{"smiles": "Nc1nccc(-c2c[nH]c3ncccc23)n1", "note": "[MERIOLIN 1]", "values": [{"measurement": "pIC50", "setting": "[1]", "value": 5.00}]}
{"smiles": "CC(=O)c1cccc(N[C@H]2[C@H](N)[C@](C)(NC(=O)N(C)C)[C@@](C)(O)[C@@]2(O)COC(=O)c2c(C)cccc2O)c1", "values": [{"measurement": "pIC50", "setting": "Plasmodium falciparum", "value": 7.11}]}
{"smiles": "COCCC(=O)NC[C@H](O)[C@H](C)C(=O)NCCC[C@H]1O[C@@]2(CCC[C@@H](CC[C@@H](C)/C=C(\\C)[C@@H](C)O)O2)CC[C@@H]1C", "values": [{"measurement": "pKd", "setting": "[2]", "value": 8.05}]}
{"smiles": "C=C[C@@H](C)CC[C@@H]1CCC[C@]2(CC[C@H](C)[C@@H](CCCNC(=O)[C@@H](C)[C@@H](O)CNC(=O)CCOC)O2)O1", "values": [{"measurement": "GI50", "setting": "A549", "value": 15100, "unit": "nM"}, {"measurement": "pKd", "setting": "[2]", "value": 7.37}]}
{"smiles": "C=CCC[C@@H]1CCC[C@]2(CC[C@H](C)[C@@H](CCCNC(=O)[C@@H](C)[C@@H](O)CNC(=O)C[C@@H]3OC(CC(=O)/C=C/C)CC[C@@H]3C)O2)O1", "note": "(stereo partly drawn)", "values": [{"measurement": "GI50", "setting": "A549", "value": 323, "unit": "nM"}, {"measurement": "pKd", "setting": "[2]", "value": 5.82}]}
{"smiles": "CC[C@H]1C[C@H](C)[C@@]2(NC1=O)O[C@@H](C[C@H](O)[C@@H](C)CC/C=C/C=C(\\C)[C@@H]1C/C=C/C=C/[C@H](O)[C@H](C)[C@@H](O)[C@@H](CCC(C)=O)C(=O)N[C@@H](C(C)C)C(=O)N[C@@H](Cc3cccc(O)c3)C(=O)N3CCC[C@H](N3)C(=O)O1)[C@H](C)[C@H](O)[C@@H]2C", "note": "[SANGLIFEHRIN A]", "values": [{"measurement": "pEC50", "setting": "Hepatitis C virus", "value": 7.06}]}
{"smiles": "CC(=O)N(C)[C@H](C(=O)N1C[C@H](C)C[C@H]1C(=O)N(C)[C@@H]1C(=O)N[C@@H](CC(C)C)C(=O)N2C[C@H](C)C[C@H]2C(=O)N[C@@H](CC(C)C)C(=O)N(C)[C@@H](C(C)C)C(=O)N2CC(C)C[C@H]2C(=O)N(C)[C@H](CC(C)C)C(=O)NCC(=O)O[C@@H]1C)C(C)C", "note": "(stereo partly drawn)", "values": [{"measurement": "bioavailability", "setting": "[3]", "value": 47, "unit": "%"}]}
{"smiles": "Nc1nccc(-c2c3cccnc3n3c(N)nccc23)n1", "values": [{"measurement": "pIC50", "setting": "[4]", "value": 7.59}]}
{"smiles": "C=CCNC1=C2C[C@@H](C)C[C@H](OC)[C@H](O)[C@@H](C)/C=C(\\C)[C@H](OC(N)=O)[C@@H](OC)/C=C\\C=C(/C)C(=O)NC(=C(C)C1=O)C2=O", "note": "(stereo in doubt)", "values": [{"measurement": "IC50 at 72 h", "setting": "[5]", "value": "> 20000", "unit": "nM"}, {"measurement": "IC50 at 72 h", "setting": "[6]", "value": "> 20000", "unit": "nM"}]}
{"smiles": "CC[C@]1(NC(=O)N(C)C)[C@@H](N)[C@H](Nc2cccc(C(C)=O)c2)[C@](O)(CO)[C@]1(C)O", "values": [{"measurement": "pIC50", "setting": "MRC5 [7]", "value": 8.25}]}
{"smiles": "C=C[C@H](C)CCC[C@@H]1CCC[C@]2(CC[C@H](C)[C@@H](CCCNC(=O)[C@@H](C)[C@@H](O)CNC(=O)C[C@@H]3OC(CC(=O)/C=C/C)CC[C@@H]3C)O2)O1", "note": "(stereo partly drawn)", "values": [{"measurement": "GI50", "setting": "A549", "value": 87.1, "unit": "nM"}, {"measurement": "pKd", "setting": "[2]", "value": 7.15}]}
{"smiles": "C=CCNC1=C2C[C@@H](C)C[C@H](OC)[C@H](O)[C@@H](C)/C=C(\\C)[C@H](OC(N)=O)[C@@H](OC)/C=C\\C=C(/C)C(=O)NC(=C(c3ccccc3)C1=O)C2=O", "note": "(stereo in doubt)", "values": [{"measurement": "IC50 at 72 h", "setting": "[5]", "value": "> 20000", "unit": "nM"}, {"measurement": "IC50 at 72 h", "setting": "[6]", "value": "> 20000", "unit": "nM"}]}
{"smiles": "CO[C@H]1/C=C\\C=C(/C)C(=O)NC2=CC(=O)C(NCCN(C)C)=C(C[C@@H](C)C[C@H](OC)[C@H](O)[C@@H](C)/C=C(\\C)[C@@H]1OC(N)=O)C2=O", "note": "(stereo in doubt) [ALVESPIMYCIN]", "values": [{"measurement": "pEC50", "setting": "NCI-N87", "value": 7.21}]}
{"smiles": "CC(=O)c1cccc(N[C@H]2[C@H](N)[C@@](NC(=O)N(C)C)([C@H](C)O)[C@@](C)(O)[C@@]2(O)COC(=O)c2c(C)cccc2O)c1", "note": "[PACTAMYCIN]", "values": [{"measurement": "pIC50", "setting": "Plasmodium falciparum", "value": 6.73}, {"measurement": "pIC50", "setting": "MRC5 [8]", "value": 7.02}, {"measurement": "pIC50", "setting": "HepG2", "value": 7.07}]}
{"smiles": "Nc1nccc(-c2c[nH]c3nccc(O)c23)n1", "note": "[MERIOLIN 2]", "values": [{"measurement": "pIC50", "setting": "[1]", "value": 5.59}, {"measurement": "pIC50", "setting": "[9]", "value": 5.51}]}
{"smiles": "C=CCC1CC[C@H](C)[C@H](CC(=O)NC[C@H](O)[C@H](C)C(=O)NCCC[C@H]2O[C@@]3(CCC[C@@H](CC[C@H](C)C=C)O3)CC[C@@H]2C)O1", "note": "(stereo partly drawn)", "values": [{"measurement": "GI50", "setting": "A549", "value": 11200, "unit": "nM"}, {"measurement": "pKd", "setting": "[2]", "value": 7.41}]}
{"smiles": "CC[C@]1(NC(N)=O)[C@@H](N)[C@H](Nc2cccc(C(C)=O)c2)[C@](O)(CO)[C@]1(C)O", "values": [{"measurement": "pIC50", "setting": "HepG2", "value": "< 5.25"}]}
{"smiles": "CC(=O)N(C)[C@H](C(=O)N1C[C@H](C)C[C@H]1C(=O)N(C)[C@@H]1C(=O)N[C@@H](CC(C)C)C(=O)N2C[C@H](C)C[C@H]2C(=O)N[C@@H](CC(C)C)C(=O)N(C)[C@@H](C(C)C)C(=O)N2CC(C3CCCCC3)C[C@H]2C(=O)N(C)[C@H](CC(C)C)C(=O)NCC(=O)O[C@@H]1C)C(C)C", "note": "(stereo partly drawn)", "values": [{"measurement": "bioavailability", "setting": "[3]", "value": 89, "unit": "%"}]}
{"smiles": "CO[C@H]1/C=C\\C=C(/C)C(=O)NC2=C(C)C(=O)C(NCCN(C)C)=C(C[C@@H](C)C[C@H](OC)[C@H](O)[C@@H](C)/C=C(\\C)[C@@H]1OC(N)=O)C2=O", "note": "(stereo in doubt)", "values": [{"measurement": "IC50 at 72 h", "setting": "[5]", "value": "> 20000", "unit": "nM"}, {"measurement": "IC50 at 72 h", "setting": "[6]", "value": "> 20000", "unit": "nM"}]}
{"smiles": "C/C=C/C(=O)C[C@H]1CC[C@H](C)[C@H](CC(=O)NC[C@H](O)[C@H](C)C(=O)NCCC[C@H]2O[C@@]3(CCC[C@@H](CC[C@@H](C)/C=C(\\C)[C@@H](C)O)O3)CC[C@@H]2C)O1", "values": [{"measurement": "GI50", "setting": "A549", "value": 20.4, "unit": "nM"}, {"measurement": "pKd", "setting": "[2]", "value": 8.15}]}
{"smiles": "CC(=O)c1cccc(N[C@H]2[C@H](N)[C@](C)(NC(=O)N(C)C)[C@@](C)(O)[C@@]2(O)CO)c1", "values": [{"measurement": "pIC50", "setting": "Plasmodium falciparum", "value": 7.21}]}
